# Assay results: patent US8710233B2 (Gruenenthal GmbH, priority 2005, dated 2014)
# Where two headings read alike, the source gives them in different places.
# Assays:
# Format in all cases: cell-based
# VR1/TRPV1 receptor = VR1/TRPV1 receptor (Homo sapiens, UniProt Q8NER1); assay: IC50 (human) after pH stimulus; settings: for inhibition at 1 µM: ne = no effect
# [1] = target: T1, vanilloid receptor 1 (VR1/TRPV1) of the rat species (Rattus norvegicus, UniProt O35433); assay: FLIPR Ca2+ influx assay on rat dorsal root ganglia cells (pharmacological method I)
# T1 construct: The spinal column is removed from decapitated rats; from tissue; host or cells: primary cells dissociated from rat dorsal root ganglia
# Outline: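 Primary rat dorsal root ganglion cells loaded with 2 μM Fluo-4, Ca2+ influx read on FLIPR as peak fluorescence. Triplicates, at least 3 independent experiments.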
# vanilloid receptor (VR1) = target: T2, vanilloid receptor (VR1) (Homo sapiens, UniProt Q8NER1); assay: FLIPR Ca2+ influx assay on CHO K1 cells transfected with the VR1 gene (pharmacological method II)
# T2 construct: expressed in transfected cells; host or cells: CHO K1 cells (ECACC), stably transfected
# [2] = read-out: inhibition in percent, IC50 (human) after pH stimulus
# [3] = table 4, capsaicin, read-out: Ki (rat) Cap.
# [4] = table 4, capsaicin, read-out: Ki (human) Cap.
# [5] = Table 2, displacement of capsaicin (100 nM), Cheng-Prusoff, read-out: Ki (rat)
# [6] = Table 2, displacement of capsaicin (100 nM), Cheng-Prusoff, read-out: Ki (human)
# [7] = Ki (rat) Cap., table 4, capsaicin
# T1 sequence (O35433 whole entry): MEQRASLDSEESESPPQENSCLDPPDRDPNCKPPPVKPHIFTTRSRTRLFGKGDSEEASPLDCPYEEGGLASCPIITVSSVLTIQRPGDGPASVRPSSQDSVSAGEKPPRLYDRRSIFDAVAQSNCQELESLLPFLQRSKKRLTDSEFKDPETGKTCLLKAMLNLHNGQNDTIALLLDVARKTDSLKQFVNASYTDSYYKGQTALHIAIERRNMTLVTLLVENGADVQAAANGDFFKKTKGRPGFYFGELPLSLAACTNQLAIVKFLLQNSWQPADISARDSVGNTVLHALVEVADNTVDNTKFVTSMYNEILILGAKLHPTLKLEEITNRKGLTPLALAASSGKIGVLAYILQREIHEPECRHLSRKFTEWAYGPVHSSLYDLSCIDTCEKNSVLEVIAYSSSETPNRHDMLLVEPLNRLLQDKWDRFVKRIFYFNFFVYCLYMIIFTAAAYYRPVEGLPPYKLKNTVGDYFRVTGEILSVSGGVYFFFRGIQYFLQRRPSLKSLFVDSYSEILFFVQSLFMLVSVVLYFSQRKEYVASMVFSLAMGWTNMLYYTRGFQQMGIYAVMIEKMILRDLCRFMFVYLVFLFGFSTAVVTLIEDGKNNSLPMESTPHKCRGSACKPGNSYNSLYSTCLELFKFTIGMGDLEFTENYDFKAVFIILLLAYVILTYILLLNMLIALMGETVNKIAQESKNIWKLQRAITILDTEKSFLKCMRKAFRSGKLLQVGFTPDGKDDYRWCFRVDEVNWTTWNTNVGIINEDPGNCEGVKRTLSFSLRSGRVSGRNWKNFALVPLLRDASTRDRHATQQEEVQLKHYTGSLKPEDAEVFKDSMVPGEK
# T2 sequence (Q8NER1 whole entry): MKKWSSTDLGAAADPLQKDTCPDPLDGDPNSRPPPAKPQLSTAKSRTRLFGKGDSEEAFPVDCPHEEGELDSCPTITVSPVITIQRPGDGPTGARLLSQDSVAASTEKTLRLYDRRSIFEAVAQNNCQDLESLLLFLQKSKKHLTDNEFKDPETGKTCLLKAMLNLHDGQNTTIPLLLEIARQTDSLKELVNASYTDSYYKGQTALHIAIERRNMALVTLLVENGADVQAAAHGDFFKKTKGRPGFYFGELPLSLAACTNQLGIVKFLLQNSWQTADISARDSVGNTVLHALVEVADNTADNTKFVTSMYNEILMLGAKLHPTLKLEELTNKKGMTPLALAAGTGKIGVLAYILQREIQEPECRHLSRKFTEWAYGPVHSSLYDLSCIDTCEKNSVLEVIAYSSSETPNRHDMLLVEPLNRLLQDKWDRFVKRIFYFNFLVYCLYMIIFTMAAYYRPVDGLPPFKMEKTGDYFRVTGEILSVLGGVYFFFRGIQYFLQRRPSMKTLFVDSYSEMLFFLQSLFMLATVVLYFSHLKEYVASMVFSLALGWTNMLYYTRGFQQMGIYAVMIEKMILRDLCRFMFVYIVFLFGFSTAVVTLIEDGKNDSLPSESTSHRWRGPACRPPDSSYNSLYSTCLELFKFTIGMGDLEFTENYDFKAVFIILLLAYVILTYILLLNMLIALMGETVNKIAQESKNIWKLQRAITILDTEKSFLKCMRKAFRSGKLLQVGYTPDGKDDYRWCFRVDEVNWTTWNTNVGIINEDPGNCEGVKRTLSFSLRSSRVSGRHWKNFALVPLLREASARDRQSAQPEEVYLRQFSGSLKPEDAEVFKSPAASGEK
# Sequence of VR1/TRPV1 receptor (Q8NER1 whole entry): as above
"Ki [1, 3]",Ki (vanilloid receptor (VR1); [4]),IC50 (VR1/TRPV1 receptor; table 4),SMILES,other results
1.4 nM,2.5 nM,,"CC(C(=O)NCc1ccc(C(C)(C)C)nc1OC1CCCCC1)c1ccc(NS(C)(=O)=O)c(F)c1 (stereo not shown) [Example 233, N-(6-tert-butyl-2-cyclohexyloxy-pyridin-3-ylmethyl)-2-(3-fluoro-4-methylsulfonamido-phenyl)-propionamide]",inhibition at 1 µM (VR1/TRPV1 receptor; [2]): 50%; inhibition at 10 µM (VR1/TRPV1 receptor; [2]): 63%
1.7 nM,1.6 nM,24 nM,"CCCCCCc1nc(C(F)(F)F)ccc1CNC(=O)C(C)c1ccc(NS(C)(=O)=O)c(F)c1 (stereo not shown) [Example 267, 2-(3-fluoro-4-methylsulfonamido-phenyl)-N-(2-hexyl-6-trifluoromethyl-pyridin-3-ylmethyl)-propionamide]",
,1 nM,44.4 nM,"CC1CCC(COc2nc(C(F)(F)F)ccc2CNC(=O)C(C)c2ccc(NS(C)(=O)=O)c(F)c2)CC1 (stereo not shown) [Example 271, 2-(3-fluoro-4-methylsulfonamido-phenyl)-N-[2-(4-methyl-cyclohexylmethoxy)-6-trifluoromethyl-pyridin-3-ylmethyl]-propionamide]","Ki [1, 7]: 1.1 nM"
,1.1 nM,161 nM,"CC(C(=O)NCc1ccc(C(F)(F)F)nc1OCC1CC1(C)C)c1ccc(NS(C)(=O)=O)c(F)c1 (stereo not shown) [Example 279, N-[2-(2,2-dimethyl-cyclopropylmethoxy)-6-trifluoromethyl-pyridin-3-ylmethyl]-2-(3-fluoro-4-methylsulfonamido-phenyl)-propionamide]","Ki [1, 7]: 1.7 nM"
1.3 nM,2.5 nM,132 nM,"CC(C(=O)NCc1ccc(C(F)(F)F)nc1OCc1ccc(Cl)cc1)c1ccc(NS(C)(=O)=O)c(F)c1 (stereo not shown) [Example 258, N-[2-(4-chloro-benzyloxy)-6-trifluoromethyl-pyridin-3-ylmethyl]-2-(3-fluoro-4-methylsulfonamido-phenyl)-propionamide]",
,2.7 nM,,"CC(C(=O)NCc1ccc(C(F)(F)F)nc1OC1Cc2ccccc2C1)c1ccc(NS(C)(=O)=O)c(F)c1 (stereo not shown) [Example 245, 2-(3-fluoro-4-methylsulfonamido-phenyl)-N-[2-(indan-2-yloxy)-6-trifluoromethyl-pyridin-3-ylmethyl]-propionamide]","inhibition at 0.1 µM (VR1/TRPV1 receptor; [2]): 21%; inhibition at 1 µM (VR1/TRPV1 receptor; [2]): 74%; Ki [1, 7]: 1.7 nM"
3.5 nM,4.4 nM,189 nM,"CCS(=O)(=O)Nc1ccc(C(C)C(=O)NCc2ccc(C(F)(F)F)nc2N2CCC(C)CC2)cc1F (stereo not shown) [Example 287, 2-(4-ethanesulfonylamino-3-fluoro-phenyl)-N-(4-methyl-6′-trifluoromethyl-3,4,5,6-tetrahydro-2H-[1,2′]bipyridinyl-3′-ylmethyl)-propionamide]",
5.1 nM,16 nM,337 nM,"CCCCc1ccc(COc2nc(C(F)(F)F)ccc2CNC(=O)C(C)c2ccc(NS(C)(=O)=O)c(F)c2)cc1 (stereo not shown) [Example 243, N-[2-(4-butyl-benzyloxy)-6-trifluoromethyl-pyridin-3-ylmethyl]-2-(3-fluoro-4-methylsulfonamido-phenyl)-propionamide]",
0.5 nM,1.9 nM,,"CC1CCN(c2nc(C(C)(C)C)ccc2CNC(=O)C(C)c2ccc(NS(C)(=O)=O)c(F)c2)CC1 (stereo not shown) [Example 241, N-(6′-tert-butyl-4-methyl-3,4,5,6-tetrahydro-2H-[1,2′]bipyridinyl-3′-ylmethyl)-2-(3-fluoro-4-methylsulfonamido-phenyl)-propionamide]",inhibition at 0.1 µM (VR1/TRPV1 receptor; [2]): 34%; inhibition at 1 µM (VR1/TRPV1 receptor; [2]): 79%
0.6 nM,0.4 nM,20.1 nM,"CC(C(=O)NCc1ccc(C(F)(F)F)cc1N1CCC(C(F)(F)F)CC1)c1ccc(NS(C)(=O)=O)c(F)c1 (stereo not shown) [Example 230, 2-(3-fluoro-4-methylsulfonamido-phenyl)-N-[4-trifluoromethyl-2-(4-trifluoromethyl-piperidin-1-yl)-benzyl]-propionamide]",

# Continued, compound first:
SMILES,"Ki [1, 3]",Ki (vanilloid receptor (VR1); [4]),IC50 (VR1/TRPV1 receptor; table 4),other results
"C[C@H](C(=O)NCc1ccc(C(F)(F)F)nc1N1CCOCC1)c1ccc(NS(C)(=O)=O)c(F)c1 [Example 72, (S)-2-(3-Fluor-4-(methylsulfonamido)phenyl)-N-((2-morpholino-6-(trifluoromethyl)pyridin-3-yl)methyl)propanamide]",,,,"IC50 (VR1/TRPV1 receptor; Table 2): 1660 nM; Ki [1, 5]: 124 nM; Ki (vanilloid receptor (VR1); [6]): 32.6 nM"
"CCCCOc1nc(C(F)(F)F)ccc1CNC(=O)C(C)c1ccc(NS(C)(=O)=O)c(C)c1 (stereo not shown) [Example 256, N-(2-butoxy-6-trifluoromethyl-pyridin-3-ylmethyl)-2-(4-methylsulfonamido-3-methyl-phenyl)-propionamide]",0.3 nM,0.6 nM,,inhibition at 1 µM (VR1/TRPV1 receptor; [2]): 59%
"CC(C(=O)NCc1ccc(C(F)(F)F)nc1N1CCC(c2ccc(F)cc2)CC1)c1ccc(NS(C)(=O)=O)c(F)c1 (stereo not shown) [Example 200, 2-(3-fluoro-4-methylsulfonamido-phenyl)-N-[4-(4-fluoro-phenyl)-6′-trifluoromethyl-3,4,5,6-tetrahydro-2H-[1,2′]bipyridinyl-3′-ylmethyl]-propionamide]",3.4 nM,4.2 nM,81 nM,
"CCC1CCN(c2nc(C(F)(F)F)ccc2CNC(=O)C(C)c2ccc(NS(C)(=O)=O)c(F)c2)CC1 (stereo not shown) [Example 197, N-(4-ethyl-6′-trifluoromethyl-3,4,5,6-tetrahydro-2H-[1,2′]bipyridinyl-3′-ylmethyl)-2-(3-fluoro-4-methylsulfonamido-phenyl)-propionamide]",0.4 nM,1.5 nM,97.3 nM,
"CC(C(=O)NCc1ccc(C(F)(F)F)nc1OCC1CCC1)c1ccc(NS(C)(=O)=O)c(F)c1 (stereo not shown) [Example 101, N-(2-cyclobutylmethoxy-6-trifluoromethyl-pyridin-3-ylmethyl)-2-(3-fluoro-4-methylsulfonamido-phenyl)-propionamide]",,0.3 nM,40.5 nM,"Ki [1, 7]: 1 nM"
"CC(C(=O)NCc1ccc(C(F)(F)F)nc1N1CCCC1)c1ccc(NS(C)(=O)=O)c(Cl)c1 (stereo not shown) [Example 102, 2-(3-chloro-4-methylsulfonamido-phenyl)-N-(2-pyrrolidin-1-yl-6 trifluoromethyl-pyridin-3-ylmethyl)-propionamide]",7.4 nM,4.2 nM,,inhibition at 10 µM (VR1/TRPV1 receptor; [2]): 18%
"CC(C(=O)NCc1ccc(C(F)(F)Cl)nc1OCc1cccnc1)c1ccc(NS(C)(=O)=O)c(F)c1 (stereo not shown) [Example 181, N-[6-(chloro-difluoro-methyl)-2-(pyridin-3-ylmethoxy)-pyridin-3-ylmethyl]-2-(3-fluoro-4-methylsulfonamido-phenyl)-propionamide]",5.6 nM,14.6 nM,1070 nM,
CC(C(=O)NCc1ccc(C(F)(F)Cl)nc1N1CCN(c2ccccc2)CC1)c1ccc(NS(C)(=O)=O)c(F)c1 (stereo not shown) [Example 207],0.8 nM,0.8 nM,38.6 nM,
"CC(C(=O)NCc1ccc(C(F)(F)F)nc1)c1ccc(NS(C)(=O)=O)c(F)c1 (stereo not shown) [Example 215, 2-(3-fluoro-4-methylsulfonamido-phenyl)-N-(6-trifluoromethyl-pyridin-3-ylmethyl)-propionamide]",,,,"inhibition at 25 µM (VR1/TRPV1 receptor; @ 25 μM, read-out: inhibition in percent, IC50 (human) after pH stimulus): 15%; inhibition at 10 µM ([1]; @ 10 μM, read-out: inhibition in percent, Ki (rat) Cap.): 48%; inhibition at 10 µM (vanilloid receptor (VR1); CHO-K1, @ 10 μM, read-out: inhibition in percent, Ki (human) Cap.): 37%"
"CC(C(=O)NCc1ccc(C(F)(F)F)nc1Oc1ccccc1)c1ccc(NS(C)(=O)=O)c(F)c1 (stereo not shown) [Example 198, 2-(3-fluoro-4-methylsulfonamido-phenyl)-N-(2-phenoxy-6-trifluoromethyl-pyridin-3-ylmethyl)-propionamide]",,6.4 nM,,"inhibition at 0.1 µM (VR1/TRPV1 receptor; [2]): 11%; inhibition at 1 µM (VR1/TRPV1 receptor; [2]): 31%; Ki [1, 7]: 0.9 nM"
"Cc1cc(C(C)C(=O)NCc2ccc(C(F)(F)F)nc2N2CCC(C)CC2)ccc1NS(C)(=O)=O (stereo not shown) [Example 196, 2-(4-methylsulfonamido-3-methyl-phenyl)-N-(4-methyl-6′-trifluoromethyl-3,4,5,6-tetrahydro-2H-[1,2′]bipyridinyl-3′-ylmethyl)-propionamide]",0.4 nM,0.6 nM,,inhibition at 1 µM (VR1/TRPV1 receptor; [2]): 41%
"CC(C(=O)NCc1ccc(C(F)(F)F)nc1OC1CCCC1)c1ccc(NS(C)(=O)=O)c(F)c1 (stereo not shown) [Example 21, N-((2-cyclopentyloxy-6-(trifluoromethyl)pyridin-3-yl)methyl)-2-(3-fluoro-4-(methylsulfonamido)phenyl)propanamide]",,,,"IC50 (VR1/TRPV1 receptor; Table 2): 29 nM; Ki [1, 5]: 1.3 nM; Ki (vanilloid receptor (VR1); [6]): 0.9 nM"
"CCOC(=O)C1(c2ccccc2)CCN(c2nc(C(F)(F)F)ccc2CNC(=O)C(C)c2ccc(NS(C)(=O)=O)c(F)c2)CC1 (stereo not shown) [Example 189, 3′-{[2-(3-fluoro-4-methylsulfonamido-phenyl)-propionylamino]-methyl}-4-phenyl-6′-trifluoromethyl-3,4,5,6-tetrahydro-2H-[1,2′]bipyridinyl-4-carbonic acid ethyl ester]",,,166 nM,"Ki [1, 7]: 3 nM; Ki (vanilloid receptor (VR1)): 4.7 nM"
"CCC1CCN(c2cc(C(F)(F)F)ccc2CNC(=O)C(C)c2ccc(NS(C)(=O)=O)c(F)c2)CC1 (stereo not shown) [Example 229, N-[2-(4-ethyl-piperidin-1-yl)-4-trifluoromethyl-benzyl]-2-(3-fluoro-4-methylsulfonamido-phenyl)-propionamide]",0.7 nM,0.7 nM,17.7 nM,
